The results in this text go back to US11066369B2, “N-(pyridin-2-yl)pyridine-sulfonamide derivatives and their use in the treatment of disease” (Novartis AG, priority 2016, dated 2021).

Molecules are shown by their SMILES. pEC50: −log10 of the molar value. Where a name gives a salt, the structure may show the parent alone.

The target in one test is T1, delF508-CFTR (Homo sapiens, UniProt P13569, DEL508-508).
T1 construct: functional activity of the CFTR channel (Chloride ion transport) in patient derived primary human bronchial epithelial cells; host or cells: patient-derived primary human bronchial epithelial cells (delF508-CFTR)
T1 sequence (P13569 with tags, fused parts or gaps DEL508-508): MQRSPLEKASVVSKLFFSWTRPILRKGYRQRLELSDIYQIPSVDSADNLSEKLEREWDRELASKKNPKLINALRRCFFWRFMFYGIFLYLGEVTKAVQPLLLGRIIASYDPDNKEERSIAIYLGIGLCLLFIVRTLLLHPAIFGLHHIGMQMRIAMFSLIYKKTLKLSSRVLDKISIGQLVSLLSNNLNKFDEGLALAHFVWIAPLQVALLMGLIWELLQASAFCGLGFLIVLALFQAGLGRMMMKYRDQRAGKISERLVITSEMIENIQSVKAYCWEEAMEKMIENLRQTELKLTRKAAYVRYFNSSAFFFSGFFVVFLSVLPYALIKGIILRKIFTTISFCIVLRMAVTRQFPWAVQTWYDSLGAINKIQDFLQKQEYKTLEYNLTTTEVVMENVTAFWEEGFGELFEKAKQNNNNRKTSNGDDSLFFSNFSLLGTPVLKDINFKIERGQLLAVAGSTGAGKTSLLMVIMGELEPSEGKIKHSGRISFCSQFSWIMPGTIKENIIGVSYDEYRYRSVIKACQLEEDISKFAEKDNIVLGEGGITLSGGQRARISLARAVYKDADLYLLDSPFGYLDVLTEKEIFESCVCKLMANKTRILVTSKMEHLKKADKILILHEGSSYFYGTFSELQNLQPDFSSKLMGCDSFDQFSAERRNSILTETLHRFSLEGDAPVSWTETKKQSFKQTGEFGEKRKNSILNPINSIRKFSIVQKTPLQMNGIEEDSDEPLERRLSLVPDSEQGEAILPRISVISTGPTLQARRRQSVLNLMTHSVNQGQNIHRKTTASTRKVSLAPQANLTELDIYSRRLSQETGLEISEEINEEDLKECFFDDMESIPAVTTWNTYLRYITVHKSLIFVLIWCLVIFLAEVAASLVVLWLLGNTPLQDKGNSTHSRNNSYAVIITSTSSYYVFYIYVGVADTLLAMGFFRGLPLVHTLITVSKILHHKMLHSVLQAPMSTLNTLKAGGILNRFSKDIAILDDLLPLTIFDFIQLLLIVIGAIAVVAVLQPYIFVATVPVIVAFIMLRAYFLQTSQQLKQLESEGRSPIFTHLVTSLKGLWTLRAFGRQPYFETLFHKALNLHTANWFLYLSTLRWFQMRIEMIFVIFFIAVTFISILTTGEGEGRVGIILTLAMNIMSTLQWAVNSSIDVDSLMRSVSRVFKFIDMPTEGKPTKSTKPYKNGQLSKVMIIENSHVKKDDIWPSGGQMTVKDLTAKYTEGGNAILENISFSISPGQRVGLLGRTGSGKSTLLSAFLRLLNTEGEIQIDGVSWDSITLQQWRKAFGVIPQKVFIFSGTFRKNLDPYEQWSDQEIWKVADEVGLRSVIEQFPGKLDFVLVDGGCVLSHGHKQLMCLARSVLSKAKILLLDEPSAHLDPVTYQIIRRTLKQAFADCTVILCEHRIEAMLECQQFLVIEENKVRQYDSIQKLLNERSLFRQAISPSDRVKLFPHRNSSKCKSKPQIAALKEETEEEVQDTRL
Kind of test: Measurement of delF508-CFTR functional activity in primary human bronchial epithelial cells (HBECs) using Multi-Transepithelial Clamp Circuit (MTECC-24) assay. In kind it is cell-based. To be noted: primary CF HBECs; for MTECC24 CFHBEC- Amax %: test compound added 24h before assay plus potentiator, relative to reference combination (2 μM corrector + 0.5 μM potentiator); for pEC50: test compound added 24h before assay, in the presence of potentiator, mean of at least two replicates, read-out: MTECC24 CFHBEC- EC50. In outline: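 Compound tested as 10-point, 1-in-3 concentration response (0.1% or 0.2% DMSO), 24 h basolateral pre-incubation, then re-added to both sides. MTECC-24 measured Ieq in ALI-differentiated primary delF508 bronchial cells after amiloride, forskolin activation, potentiator and INH-172 block; data normalized to DMSO baseline, EC50 fitted.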

Test [1] addresses T2, horseradish peroxidase (HRP) tagged delF508-CFTR (Homo sapiens, UniProt P13569, DEL508-508).
T2 construct: expressed in transfected cells
Kind of test: Measurement of delF508-CFTR-HRP surface expression in CFBE41o- cells.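 On DelF508-CFTR-HRP Amax %: percent efficacy relative to reference corrector lumacaftor.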 Format: cell-based. Conditions: delF508-CFTR-HRP surface expression, CFBE41o- cells; for pEC50: read-out: DelF508-CFTR-HRP EC50; for Emax: read-out: DelF508-CFTR-HRP Amax %. The essentials: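 Surface-trafficked delF508-CFTR detected via extracellular HRP tag, read as luminescence from a membrane-impermeant substrate in CFBE41o- cells. Cells pre-induced 48h with 500 ng/mL doxycycline, then exposed 24h at 37° C to a 10-point, 3-fold dilution series from 10 μM (DMSO ≤0.5%). Triplicate dose-responses fitted logistically for EC50 after per-plate normalization; fold change versus reference compound.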

T2 sequence (P13569 with tags, fused parts or gaps DEL508-508): as above

Regarding `Cc1ccccc1-c1nc(NS(=O)(=O)c2cccc(N[C@@H]3CCCNC3)n2)ccc1C(F)(F)F` [Example 104, (R)-6-(piperidin-3-ylamino)-N-(6-(o-tolyl)-5-(trifluoromethyl)pyridin-2-yl)pyridine-2-sulfonamide Hydrochloride], at delF508-CFTR, the “MTECC24 CFHBEC- Amax %” value is given as 73.4% and the pEC50 was 7.61. Also, in test [1], the pEC50 is 5.67.
As for `Cc1ccccc1-c1nc(NS(=O)(=O)c2cccc(N[C@H]3CCCNC3)n2)ccc1C(F)(F)F` [Example 105, (S)-6-(piperidin-3-ylamino)-N-(6-(o-tolyl)-5-(trifluoromethyl)pyridin-2-yl)pyridine-2-sulfonamide Hydrochloride], on delF508-CFTR, the “MTECC24 CFHBEC- Amax %” value was 58.1% and the pEC50 is 6.65. Moreover, in test [1], the Emax turned out to be 310% and the pEC50 was 5.50.
As to `CO[C@H]1CCNC[C@H]1Nc1cccc(S(=O)(=O)Nc2ccc(C(F)(F)F)c(-c3ccccc3C)n2)n1` [Example 106, 6-(((3R,4S)-4-methoxypiperidin-3-yl)amino)-N-(6-(o-tolyl)-5-(trifluoromethyl)pyridin-2-yl)pyridine-2-sulfonamide Hydrochloride], at delF508-CFTR, the “MTECC24 CFHBEC- Amax %” value is on record as 106.4% and the pEC50 is 7.10. Also, in test [1], the Emax turned out to be 912% and the pEC50 was 5.59.
For `Cc1ccccc1-c1nc(NS(=O)(=O)c2cccc(N3CC4C(N)C4C3)n2)ccc1C(F)(F)F` (centres unmarked) [Example 107, 6-(6-amino-3-azabicyclo[3.1.0]hexan-3-yl)-N-(6-(o-tolyl)-5-(trifluoromethyl)pyridin-2-yl)pyridine-2-sulfonamide Hydrochloride] the same measures were 72.2%, 6.96, 756% and 5.70.
On the same counts, the results for `Cc1ccccc1-c1nc(NS(=O)(=O)c2cccc(N3CCC(N)CC3)n2)ccc1C(F)(F)F` [Example 108, 6-(4-aminopiperidin-1-yl)-N-(6-(o-tolyl)-5-(trifluoromethyl)pyridin-2-yl)pyridine-2-sulfonamide Hydrochloride] are 61.4%, 7.26, 336% and 5.39.
On the same counts, the results for `CNC1CCN(c2cccc(S(=O)(=O)Nc3ccc(C(F)(F)F)c(-c4ccccc4C)n3)n2)CC1` [Example 109, 6-(4-(methylamino)piperidin-1-yl)-N-(6-(o-tolyl)-5-(trifluoromethyl)pyridin-2-yl)pyridine-2-sulfonamide Hydrochloride] are 84.9%, 6.77, 332% and 5.57.
Consider `Cc1ccccc1-c1nc(NS(=O)(=O)c2cccc(N3CCC(C)(N)CC3)n2)ccc1C(F)(F)F` [Example 110, 6-(4-amino-4-methylpiperidin-1-yl)-N-(6-(o-tolyl)-5-(trifluoromethyl)pyridin-2-yl)pyridine-2-sulfonamide Hydrochloride], for which, on delF508-CFTR, the “MTECC24 CFHBEC- Amax %” value worked out at 65.6% and the pEC50 was 7.55. Besides, in test [1], the Emax was determined as 372% and the negative logarithm of the EC50 (pEC50) was 5.55.
For `Cc1ccccc1-c1nc(NS(=O)(=O)c2cccc(NC3CCNCC3)n2)ccc1C(F)(F)F` [Example 112, 6-(piperidin-4-ylamino)-N-(6-(o-tolyl)-5-(trifluoromethyl)pyridin-2-yl)pyridine-2-sulfonamide Hydrochloride] the same measures were 55.0%, 6.31, 172% and 5.39.
As for `Cc1ccccc1-c1nc(NS(=O)(=O)c2cccc(N3C[C@H](O)[C@@H](N4CCCC4)C3)n2)ccc1C(F)(F)F` [Example 118, 6-((3′S,4'S)-4′-hydroxy-[1,3′-bipyrrolidin]-1′-yl)-N-(6-(o-tolyl)-5-(trifluoromethyl)pyridin-2-yl)pyridine-2-sulfonamide], at delF508-CFTR, the “MTECC24 CFHBEC- Amax %” value worked out at 78.5% and the pEC50 is 7.93. In test [1], the Emax is 492% and the pEC50 was 5.58.
On the same counts, the results for `Cc1ccccc1-c1nc(NS(=O)(=O)c2cccc(N3CC[C@@H](N)C3)n2)ccc1C(F)(F)F` [Example 119, (R)-6-(3-aminopyrrolidin-1-yl)-N-(6-(o-tolyl)-5-(trifluoromethyl)pyridin-2-yl)pyridine-2-sulfonamide Hydrochloride] are 70.2%, 7.26, 411% and 5.74.
On the same counts, the results for `Cc1ccccc1-c1nc(NS(=O)(=O)c2cccc(N3CC[C@H](N)C3)n2)ccc1C(F)(F)F` [Example 120, (S)-6-(3-aminopyrrolidin-1-yl)-N-(6-(o-tolyl)-5-(trifluoromethyl)pyridin-2-yl)pyridine-2-sulfonamide Hydrochloride] are 57.9%, 7.43, 270% and 5.55.
Take `CN[C@@H]1CCN(c2cccc(S(=O)(=O)Nc3ccc(C(F)(F)F)c(-c4ccccc4C)n3)n2)C1` [Example 121, (R)-6-(3-(methylamino)pyrrolidin-1-yl)-N-(6-(o-tolyl)-5-(trifluoromethyl)pyridin-2-yl)pyridine-2-sulfonamide Hydrochloride]: at delF508-CFTR, the “MTECC24 CFHBEC- Amax %” value turned out to be 79.6% and the pEC50 was 6.78. Besides, in test [1], the Emax amounted to 308% and the pEC50 was 5.46.
`CN[C@H]1CCN(c2cccc(S(=O)(=O)Nc3ccc(C(F)(F)F)c(-c4ccccc4C)n3)n2)C1` [Example 122, (S)-6-(3-(methylamino)pyrrolidin-1-yl)-N-(6-(o-tolyl)-5-(trifluoromethyl)pyridin-2-yl)pyridine-2-sulfonamide Hydrochloride]: at delF508-CFTR, the “MTECC24 CFHBEC- Amax %” value turned out to be 81.8% and the pEC50 was 7.57. Besides, in test [1], the Emax worked out at 385% and the pEC50 is 5.57.
Regarding `Cc1ccccc1-c1nc(NS(=O)(=O)c2cccc(N[C@@H]3CCNC3)n2)ccc1C(F)(F)F` [Example 123, (R)-6-(pyrrolidin-3-ylamino)-N-(6-(o-tolyl)-5-(trifluoromethyl)pyridin-2-yl)pyridine-2-sulfonamide Hydrochloride], at delF508-CFTR, the “MTECC24 CFHBEC- Amax %” value amounted to 85.2% and the pEC50 is 6.62. Also, in test [1], the Emax worked out at 218% and the pEC50 was 5.50.
For `O=S(=O)(Nc1ccc(Cl)c(-c2ccccc2C(F)(F)F)n1)c1cccc(N[C@H]2COC[C@@H]2O)n1` [Example 125, N-(5-chloro-6-(2-(trifluoromethyl)phenyl)pyridin-2-yl)-6-(((3S,4R)-4-hydroxytetrahydrofuran-3-yl)amino)pyridine-2-sulfonamide] the same measures were 67.5%, 7.32, 215% and 5.71.
For `Cc1ccc(F)cc1-c1nc(NS(=O)(=O)c2cccc(N[C@@H]3COC[C@H]3O)n2)ccc1Cl` [Example 127, N-(5-chloro-6-(5-fluoro-2-methylphenyl)pyridin-2-yl)-6-(((3R,4S)-4-hydroxytetrahydrofuran-3-yl)amino)pyridine-2-sulfonamide] the same measures were 45.4%, 7.80, 382% and 5.63.
For `Cc1ccc(F)cc1-c1nc(NS(=O)(=O)c2cccc(N[C@@H]3[C@H](CO)[C@H]4CC[C@@H]3O4)n2)ccc1Cl` [Example 128, N-(5-chloro-6-(5-fluoro-2-methylphenyl)pyridin-2-yl)-6-(((1S,2R,3R,4R)-3-(hydroxymethyl)-7-oxabicyclo[2.2.1]heptan-2-yl)amino)pyridine-2-sulfonamide] the same measures were 61.9%, 8.28, 730% and 5.65.
On to `Cc1cccc(C)c1-c1nc(NS(=O)(=O)c2cccc(O[C@H]3CC[C@@H](C(=O)O)CC3)n2)ccc1Cl` [Example 129, (1s,4s)-4-((6-(N-(5-chloro-6-(2,6-dimethylphenyl)pyridin-2-yl)sulfamoyl)pyridin-2-yl)oxy)cyclohexane-1-carboxylic Acid], for which, at delF508-CFTR, the “MTECC24 CFHBEC- Amax %” value turned out to be 54.8% and the pEC50 was 7.71. In test [1], the pEC50 is 5.76.
As to `Cc1cccc(C)c1-c1nc(NS(=O)(=O)c2cccc(O[C@H]3CC[C@H](C(=O)O)CC3)n2)ccc1Cl` [Example 130, (1r,4r)-4-((6-(N-(5-chloro-6-(2,6-dimethylphenyl)pyridin-2-yl)sulfamoyl)pyridin-2-yl)oxy)cyclohexane-1-carboxylic Acid], at delF508-CFTR, the “MTECC24 CFHBEC- Amax %” value is 37.9% and the pEC50 is 7.08. Moreover, in test [1], the Emax was determined as 157% and the pEC50 is 5.53.

The term pEC50 denotes the negative decadic logarithm of the EC50, by convention in mol/L.
